Here are results for six compounds from patent US4649147A, “Treating elastin degradation with 1-(alkenoyl)azacycloalkyl carboxylic acids and derivatives” (G. D. Searle & Co., priority 1985, dated 1987).

One assay has as its target T1, human leukocyte elastase (Homo sapiens, UniProt P08246).
T1 sequence (P08246 30-267): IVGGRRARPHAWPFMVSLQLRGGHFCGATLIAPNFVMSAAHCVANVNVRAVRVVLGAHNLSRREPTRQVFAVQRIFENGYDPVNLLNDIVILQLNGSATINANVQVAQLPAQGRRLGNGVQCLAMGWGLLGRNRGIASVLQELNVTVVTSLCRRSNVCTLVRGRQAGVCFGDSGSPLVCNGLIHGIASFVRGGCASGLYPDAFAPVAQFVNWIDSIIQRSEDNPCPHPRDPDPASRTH
Kind of assay: Inhibition of hydrolysis of methoxysuccinyl-ala-ala-pro-val-nitroanilide by human leukocyte elastase. Format: biochemical. As to conditions: for IC50: human leukocyte elastase, MSN substrate. From the text: The compounds useful in practicing the method of the invention are inhibitors of leucocyte elastase and cathepsin G. Since elastase is involved in the breakdown of elastin and subsequently involved in a number of disease states, a compound which blocks the action of elastase will be useful in the management, treatment and prevention of such diseases. […] Nakajima, K., et al., J. Biol. Chem., 254, 4027 (1979). This is useful in measuring inhibition of elastase because the hydrolysis of MSN is easily quantitated by measuring the release of p-nitroaniline spectrophotometrically. Therefore, the degree of elastase inhibition can be readily measured by noting the rate of inhibition of the hydrolysis of MSN. The compounds of the invention are therefore tested in vitro as follows. The rate of hydrolysis of methoxysuccinyl-ala-ala-pro-val-nitroanalide by human leukocyte elastase is monitored spectrophotometrically in the presence and absence of test compound. The inhibition of the enzymatic reaction by 20% or more at a given concentration of test compound is taken as positive inhibition of elastase. IC50 values are then determined.

Assay [1] deals with mammalian prolyl-4-hydroxylase (Homo sapiens, UniProt P13674). Kind of assay: In vitro prolyl-4-hydroxylase inhibition. Format: biochemical. The note with it: purified mammalian enzyme. From the text:
Fibrosis is a connective tissue disease characterized by overaccumulation of extracellular fibrous matrix components, particularly collagen. Since prolyl hydroxylation is required for active secretion and thermal stability of collagen, fibrosis could be treated by inhibitors of prolyl-4-hydroxylase, such as the compounds of this invention. See G. C. Fuller, J. Med. Chem., 24, 651-658 (1981). The following procedure is used to test the compounds in vitro for prolyl-4-hydroxylase inhibition.
Purified mammalian prolyl-4-hydroxylase [EC 1.14.11.2:prolyl-glycyl-peptide, 2-oxyglutarate: oxidoreductase] is incubated with substrates (i.e., native unhydroxylated collagen of either 60,000 molecular weight, Km 10^-8 M; or 90,000 molecular weight, Km 10^-11 M), α-ketoglutarate, oxygen, and enzyme cofactors, with or without the test compounds. End-point is determined by measuring release of tritiated water during the hydroxylation of H^3 -peptidyl proline or release of ^14 CO2 formed from the coupled decarboxylation of ^14 C-α-ketoglutarate. Data are reported as percent inhibition with test compound at a given concentration relative to the control assays without test compound.

The test system of assay [2] is bleomycin-induced lung fibrosis. Put plainly: Bleomycin-induced lung fibrosis in male syrian hamsters. Format: in vivo, syrian hamster. The note with it: 100 mg/kg, day 21 relative to untreated animals. The source says: The procedure described by Kelley et al., J. Lab. Clin. Med., 96, 954-964 (1980), is used to test the compounds in vivo for activity against bleomycin-induced lung fibrosis in male syrian hamsters. […] Activities are reported as percent inhibitions at day 21 relative to untreated animals.

Chain of mammalian prolyl-4-hydroxylase (P13674 18-534): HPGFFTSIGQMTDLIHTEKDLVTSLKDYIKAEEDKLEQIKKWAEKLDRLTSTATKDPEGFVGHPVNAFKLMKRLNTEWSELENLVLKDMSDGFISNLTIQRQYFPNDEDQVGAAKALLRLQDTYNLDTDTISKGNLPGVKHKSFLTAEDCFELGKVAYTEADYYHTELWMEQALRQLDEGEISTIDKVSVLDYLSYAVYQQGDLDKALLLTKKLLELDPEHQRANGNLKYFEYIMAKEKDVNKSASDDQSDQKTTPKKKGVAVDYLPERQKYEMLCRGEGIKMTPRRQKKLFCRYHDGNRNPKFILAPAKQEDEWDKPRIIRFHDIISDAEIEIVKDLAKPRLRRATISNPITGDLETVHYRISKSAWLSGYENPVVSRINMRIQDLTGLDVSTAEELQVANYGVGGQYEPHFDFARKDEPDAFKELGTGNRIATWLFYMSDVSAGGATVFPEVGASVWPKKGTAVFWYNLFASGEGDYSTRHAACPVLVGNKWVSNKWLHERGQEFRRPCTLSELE
Chain of mammalian prolyl-4-hydroxylase (P07237 18-508 partner): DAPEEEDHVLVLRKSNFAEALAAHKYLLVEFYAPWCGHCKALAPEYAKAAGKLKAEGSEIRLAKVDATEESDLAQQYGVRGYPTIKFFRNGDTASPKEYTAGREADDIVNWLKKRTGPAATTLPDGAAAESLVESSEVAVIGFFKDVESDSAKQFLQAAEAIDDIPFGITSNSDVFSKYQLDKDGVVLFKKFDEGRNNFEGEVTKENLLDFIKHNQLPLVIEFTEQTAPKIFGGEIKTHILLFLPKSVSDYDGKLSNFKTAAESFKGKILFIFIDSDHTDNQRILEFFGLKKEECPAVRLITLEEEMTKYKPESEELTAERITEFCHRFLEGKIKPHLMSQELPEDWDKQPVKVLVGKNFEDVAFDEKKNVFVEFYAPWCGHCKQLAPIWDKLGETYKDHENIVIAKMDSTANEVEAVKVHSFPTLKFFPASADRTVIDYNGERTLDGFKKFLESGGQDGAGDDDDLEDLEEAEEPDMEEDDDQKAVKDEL

`CCCCCCCC/C=C\CCCCCCCC(=O)N1CCC[C@H]1C(=O)O` [Example 1, 1-(1-oxo-9Z-octadecenyl)proline]: the IC50 (in general, the concentration that gives 50% inhibition) came to 7.8 µM at human leukocyte elastase and 4.4 µM in assay [1].

With `CCCCCCCC/C=C\CCCCCCCC(=O)N1CCCC(C(=O)O)C1` (stereo not shown) [Example 2, 1-(1-oxo-9Z-ocadecenyl)-3-piperidinecarboxylic acid], the half-inhibitory concentration (IC50) was determined as 3.4 µM against human leukocyte elastase and 5.9 µM in assay [1].

Regarding `CCCCCCCC/C=C\CCCCCCCC(=O)N1CCC(C(=O)O)CC1` [Example 3, 1-(1-oxo-9Z-octadecenyl)-4-piperidinecarboxylic acid], the concentration for half-maximal inhibition (IC50) at human leukocyte elastase was found to be 4.6 µM; in assay [1] it was 9 µM.

Compound `CCCCCCCC/C=C\CCCCCCCC(=O)N1CCC(C(=O)OCC)(c2ccccc2)CC1` [Example 4, ethyl 1-(1-oxo-9Z-octadecenyl)-4-phenyl-4-piperidinecarboxylate] returned an inhibition against elastase against human leukocyte elastase (at 20 mcM) of 22%.

As for `CCCCCCCC/C=C\CCCCCCCC(=O)N1CCC(C(=O)O)(c2ccccc2)CC1` [Example 5, 1-(1-oxo-9Z-octadecenyl)-4-phenyl-4-piperidinecarboxylic acid], on human leukocyte elastase, the concentration for half-maximal inhibition (IC50) stood at 1.2 µM.

`CCCCCCCC/C=C\CCCCCCCC(=O)N1CCC[C@H]1C(=O)OC` [Example 6, 1-(1-oxo-9Z-octadecenyl)proline methyl ester]: in assay [2], the “Bleomycin-induced Fibrosis, % Inhib. of Hydroxyproline” value came to 30.1% and the “Bleomycin-induced Fibrosis, % Inhib. of Lung wt./body wt.” value is listed as 33.0%.
